The target of this assay is human KV7.2/KV7.3 (Homo sapiens (Human), UniProt O43525+O43526). Kind of assay: Potassium flux assay (IPG-2 AM dye). It is filed as cell-based. The following applies: TREX HEK 293 or HEK 293 cells expressing human KV7.2/KV7.3; arithmetic mean values. Summed up: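 EC50 from 16 concentrations (2-fold dilutions, top 30 μM), scaled between DMSO baseline and a known KV7.x modulator maximum. Signal is IPG-2 AM fluorescence (ex 530/em 558 nm) after 10 mM KCl challenge buffer addition, following 20 min room-temperature compound exposure of HEK 293 or TREX HEK 293 cells stably expressing human KV7.2/KV7.3.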

What is called EC50 is the concentration giving half of the maximal effect.

Structures can show the parent of a compound that is named as a salt. Bounds are passed on as bounds.

Take `Clc1ccc(Nc2nccc3cc(OC4CCN(Cc5ccccc5)CC4)ccc23)cn1` [Example 90, 6-((1-benzylpiperidin-4-yl)oxy)-N-(6-chloropyridin-3-yl)isoquinolin-1-amine trifluoroacetate]: the EC50 was 1 to 10 µM.

Take `N#CC1(COc2ccc3c(Nc4ccc(Cl)nc4)nccc3c2)CC1` [Example 80, 1-(((1-((6-chloropyridin-3-yl)amino)isoquinolin-6-yl)oxy)methyl)cyclopropane-1-carbonitrile]: the EC50 is below 1 µM.

For the molecule `OCC1(COc2ccc3c(Nc4ccc(Cl)nc4)nccc3c2)COC1` [Example 329, (3-(((1-((6-chloropyridin-3-yl)amino)isoquinolin-6-yl)oxy)methyl)oxetan-3-yl)methanol], the concentration giving a half-maximal response (EC50) lay within 1 to 10 µM.

As for `Cc1ncc(Nc2nccc3c(F)c(OCC4CC4)ccc23)cn1` [Example 233, 6-(cyclopropylmethoxy)-5-fluoro-N-(2-methylpyrimidin-5-yl)isoquinolin-1-amine], the EC50 lay in the range of 10 to 30 µM.

With `Clc1ccc(Nc2nccc3cc(OC4CCCOC4)ccc23)cn1` (stereo not shown) [Example 216, N-(6-chloropyridin-3-yl)-6-((tetrahydro-2H-pyran-3-yl)oxy)isoquinolin-1-amine], the EC50 was below 1 µM.

Turning to `O=C1OCCN1CCOc1ccc2c(Nc3ccc(Cl)nc3)nccc2c1` [Example 107, 3-(2-((1-((6-chloropyridin-3-yl)amino)isoquinolin-6-yl)oxy)ethyl)oxazolidin-2-one], the concentration giving a half-maximal response (EC50) lay within 1 to 10 µM.

`Clc1ccc(Nc2nccc3cc(OCc4cnoc4)ccc23)cn1` [Example 368, N-(6-chloropyridin-3-yl)-6-(isoxazol-4-ylmethoxy)isoquinolin-1-amine]: the EC50 is below 1 µM.

Take `N#CCC1(COc2ccc3c(Nc4ccc(Cl)nc4)nccc3c2)COC1` [Example 134, 2-(3-(((1-((6-chloropyridin-3-yl)amino)isoquinolin-6-yl)oxy)methyl)oxetan-3-yl)acetonitrile]: the EC50 is below 1 µM.

On to `Cn1cnnc1COc1ccc2c(Nc3ccc(Cl)nc3)nccc2c1` [Example 87, N-(6-chloropyridin-3-yl)-6-((4-methyl-4H-1,2,4-triazol-3-yl)methoxy)isoquinolin-1-amine], for which the EC50 was 1 to 10 µM.

Take `CC(=O)N1CCC(Oc2ccc3c(Nc4ccc(Cl)nc4)nccc3c2)CC1` [Example 312, 1-(4-((1-((6-chloropyridin-3-yl)amino)isoquinolin-6-yl)oxy)piperidin-1-yl)ethan-1-one]: the EC50 was 1 to 10 µM.

As to `Clc1ccc(Nc2nccc3cc(OC4CCN(C5COC5)CC4)ccc23)cn1` [Example 313, N-(6-chloropyridin-3-yl)-6-((1-(oxetan-3-yl)piperidin-4-yl)oxy)isoquinolin-1-amine], the EC50 fell in the range of 1 to 10 µM.

Consider `CC1(COc2ccc3c(Nc4ccc(Cl)nc4)nccc3c2)COC1` [Example 210, N-(6-chloropyridin-3-yl)-6-((3-methyloxetan-3-yl)methoxy)isoquinolin-1-amine], for which the EC50 is below 1 µM.

For `FC1(F)CC(COc2ccc3c(Nc4ccc(Cl)nc4)nccc3c2)C1` [Example 407, N-(6-chloropyridin-3-yl)-6-((3,3-difluorocyclobutyl)methoxy)isoquinolin-1-amine], the EC50 is 1 to 10 µM.

`COCCOc1ccc2c(Nc3ccc(Cl)nc3)nccc2c1` [Example 4, N-(6-chloropyridin-3-yl)-6-(2-methoxyethoxy)isoquinolin-1-amine]: the EC50 was in the range of 1 to 10 µM.

Turning to `CC(=O)N1CC[C@@H](Oc2ccc3c(Nc4ccc(Cl)nc4)nccc3c2)C1` [Example 112, (R)-1-(3-((1-((6-chloropyridin-3-yl)amino)isoquinolin-6-yl)oxy)pyrrolidin-1-yl)ethan-1-one], the EC50 lay in the range of 1 to 10 µM.

Take `FC(F)C1(COc2ccc3c(Nc4ccc(Cl)nc4)nccc3c2)COC1` [Example 327, N-(6-chloropyridin-3-yl)-6-((3-(difluoromethyl)oxetan-3-yl)methoxy)isoquinolin-1-amine]: the EC50 was below 1 µM.

Regarding `COc1cc(Nc2nccc3cc(OCC4(C)COC4)ccc23)cnc1Cl` [Example 36, N-(6-chloro-5-methoxypyridin-3-yl)-6-((3-methyloxetan-3-yl)methoxy)isoquinolin-1-amine], the EC50 is below 1 µM.

On to `Cc1ncc(Nc2nccc3cc(OCC4(C#N)CC4)ccc23)cn1` [Example 127, 1-(((1-((2-methylpyrimidin-5-yl)amino)isoquinolin-6-yl)oxy)methyl)cyclopropane-1-carbonitrile], for which the EC50 was below 1 µM.

With `NS(=O)(=O)C1(COc2ccc3c(Nc4ccc(Cl)nc4)nccc3c2)CCC1` [Example 294, 1-(((1-((6-chloropyridin-3-yl)amino)isoquinolin-6-yl)oxy)methyl)cyclobutane-1-sulfonamide], the EC50 is below 1 µM.

With `Cc1ccc(Nc2nccc3cc(OCC4COC4)ccc23)cn1` [Example 214, N-(6-methylpyridin-3-yl)-6-(oxetan-3-ylmethoxy)isoquinolin-1-amine], the EC50 lay in the range of 1 to 10 µM.

For `Clc1ccc(Nc2nccc3cc(Oc4ccccc4)ccc23)cn1` [Example 8, N-(6-chloropyridin-3-yl)-6-phenoxyisoquinolin-1-amine], the EC50 lay within 1 to 10 µM.

For `Cn1cc(OCc2ccc3c(Nc4ccc(Cl)nc4)nccc3c2)cn1` [Example 249, N-(6-chloropyridin-3-yl)-6-(((1-methyl-1H-pyrazol-4-yl)oxy)methyl)isoquinolin-1-amine], the half-maximal effective concentration (EC50) was 1 to 10 µM.

With `Cc1nn(C)cc1COc1ccc2c(Nc3ccc(Cl)nc3)nccc2c1` [Example 165, N-(6-chloropyridin-3-yl)-6-((1,3-dimethyl-1H-pyrazol-4-yl)methoxy)isoquinolin-1-amine], the EC50 is below 1 µM.

Consider `Clc1ccc(Nc2nccc3cc(OCc4ccon4)ccc23)cn1` [Example 215, N-(6-chloropyridin-3-yl)-6-(isoxazol-3-ylmethoxy)isoquinolin-1-amine], for which the EC50 was below 1 µM.

In the case of `N#CC1(COc2ccc3c(Nc4ccc(Cl)nc4)nccc3c2)CC(F)(F)C1` [Example 234, 1-(((1-((6-chloropyridin-3-yl)amino)isoquinolin-6-yl)oxy)methyl)-3,3-difluorocyclobutane-1-carbonitrile], the EC50 was below 1 µM.

For the molecule `C[C@H](Oc1ccc2c(Nc3ccc(Cl)nc3)nccc2c1)c1ccncc1` [Example 237, (S)—N-(6-chloropyridin-3-yl)-6-(1-(pyridin-4-yl)ethoxy)isoquinolin-1-amine], the EC50 was below 1 µM.

On to `F[C@@H]1C[C@H]1COc1ccc2c(Nc3ccc(Cl)nc3)nccc2c1` [Example 413, N-(6-chloropyridin-3-yl)-6-(((1S,2R)-2-fluorocyclopropyl)methoxy)isoquinolin-1-amine], for which the EC50 is 1 to 10 µM.

Turning to `Clc1ccc(Nc2nccc3cc(OCc4cnsc4)ccc23)cn1` [Example 301, N-(6-chloropyridin-3-yl)-6-(isothiazol-4-ylmethoxy)isoquinolin-1-amine], the EC50 is below 1 µM.

With `Cc1n[nH]cc1COc1ccc2c(Nc3ccc(Cl)nc3)nccc2c1` [Example 393, N-(6-chloropyridin-3-yl)-6-((3-methyl-1H-pyrazol-4-yl)methoxy)isoquinolin-1-amine], the EC50 is below 1 µM.

In the case of `Clc1ccc(Nc2nccc3cc(OCc4ncco4)ccc23)cn1` [Example 211, N-(6-chloropyridin-3-yl)-6-(oxazol-2-ylmethoxy)isoquinolin-1-amine], the EC50 lay in the range of 1 to 10 µM.

On to `CC(Oc1ccc2c(Nc3ccc(Cl)nc3)nccc2c1)c1cnn(C)c1` (racemic) [Example 170, N-(6-chloropyridin-3-yl)-6-(1-(1-methyl-1H-pyrazol-4-yl)ethoxy)isoquinolin-1-amine], for which the EC50 is below 1 µM.

As for `FC1(F)CN[C@@H](COc2ccc3c(Nc4ccc(Cl)nc4)nccc3c2)C1` [Example 227, (R)—N-(6-chloropyridin-3-yl)-6-((4,4-difluoropyrrolidin-2-yl)methoxy)isoquinolin-1-amine trifluoroacetate], the EC50 is 1 to 10 µM.

`Clc1ccc(Nc2nccc3occc23)cn1` [Example 30, N-(6-chloropyridin-3-yl)furo[3,2-c]pyridin-4-amine formate]: the EC50 fell in the range of 1 to 10 µM.

With `O=C(Nc1ccc2c(Nc3ccc(Cl)nc3)nccc2c1)C1(CO)CC1` [Example 401, N-(1-((6-chloropyridin-3-yl)amino)isoquinolin-6-yl)-1-(hydroxymethyl)cyclopropane-1-carboxamide], the EC50 was at least 30 µM.

As to `COc1ncc(Nc2nccc3cc(OCC4(C)COC4)ccc23)cn1` [Example 370, N-(2-methoxypyrimidin-5-yl)-6-((3-methyloxetan-3-yl)methoxy)isoquinolin-1-amine], the EC50 was below 1 µM.

Consider `CC[C@H](OC)c1ccc2c(Nc3ccc(Cl)nc3)nccc2c1` [Example 131, (S)—N-(6-chloropyridin-3-yl)-6-(1-methoxypropyl)isoquinolin-1-amine], for which the concentration for a half-maximal effect (EC50) is at least 30 µM.

On to `Cn1cc(CNc2ccc3c(Nc4ccc(Cl)nc4)nccc3c2)cn1` [Example 244, N′-(6-chloropyridin-3-yl)-N^6-((1-methyl-1H-pyrazol-4-yl)methyl)isoquinoline-1,6-diamine], for which the half-maximal effective concentration (EC50) is 1 to 10 µM.

In the case of `N#CC1(COc2ccc3c(Nc4ccc(Cl)nc4)nccc3c2)CCOC1` (stereo in doubt) [Example 126, (S)-3-(((1-((6-chloropyridin-3-yl)amino)isoquinolin-6-yl)oxy)methyl)tetrahydrofuran-3-carbonitrile], the EC50 is below 1 µM.

Consider `O[C@@H]1CCC[C@H](Oc2ccc3c(Nc4ccc(Cl)nc4)nccc3c2)C1` (racemic) [Example 95, rac-(1R,3S)-3-((1-((6-chloropyridin-3-yl)amino)isoquinolin-6-yl)oxy)cyclohexan-1-ol], for which the EC50 was below 1 µM.

Turning to `OCC1(COc2ccc3c(Nc4ccc(Cl)nc4)nccc3c2)CC1` [Example 238, (1-(((1-((6-chloropyridin-3-yl)amino)isoquinolin-6-yl)oxy)methyl)cyclopropyl)methanol], the EC50 is below 1 µM.
